In patent publication US9598446B2, “Amino compounds for treatment of complement mediated disorders” (priority 2014, dated 2017):

These compounds were tested against Human factor D (Homo sapiens (Human), UniProt P00746) (assay: Human Factor D Assay). Conditions: not given.
Type: biochemical

Sequence of Human factor D (P00746 26-253): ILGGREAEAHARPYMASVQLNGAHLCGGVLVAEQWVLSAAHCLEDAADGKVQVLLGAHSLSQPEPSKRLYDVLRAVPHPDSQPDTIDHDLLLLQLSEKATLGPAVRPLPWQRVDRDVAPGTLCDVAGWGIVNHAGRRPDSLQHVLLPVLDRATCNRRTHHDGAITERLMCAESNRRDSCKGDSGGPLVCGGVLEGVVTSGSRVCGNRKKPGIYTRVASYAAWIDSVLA

Compound | IC50
CC(=O)c1cn(CC(=O)N2C[C@H](F)C[C@H]2C(=O)NCc2nc3ccccc3s2)c2ccc(Nc3cncnc3)cc12 [Compound 16, (2S,4R)-1-(2-(3-acetyl-5-(pyrimidin-5-ylamino)-1H-indol-yl)acetyl)-N-(benzo[d]thiazol-2-ylmethyl)-4-fluoropyrrolidine-2-carboxamide] | 1000 to 10000 nM
CC(=O)c1cn(CC(=O)N2C[C@H](F)C[C@H]2C(=O)Nc2nnc(-c3ccccc3Cl)s2)c2ccc(Nc3cncnc3)cc12 [Compound 34, (2S,4R)-1-(2-(3-acetyl-5-(pyrimidin-5-ylamino)-1H-indol-1-yl)acetyl)-N-(5-(2-chlorophenyl)-1,3,4-thiadiazol-2-yl)-4-fluoropyrrolidine-2-carboxamide] | 1000 to 10000 nM

Same assay, conditions: human factor D 80 nM, substrate Z-L-Lys-SBz1 and DTNB 100 μM each, pH 7.5; read-out: IC50

Compound | IC50
CC(=O)c1cn(CC(=O)N2C[C@H](F)C[C@H]2C(=O)Nc2cccc(Cl)c2C(F)(F)F)c2ccc(Nc3cncnc3)cc12 [Compound 48, (2S,4R)-1-(2-(3-acetyl-5-(pyrimidin-5-ylamino)-1H-indol-1-yl)acetyl)-N-(3-chloro-2-(trifluoromethyl)-phenyl)-4-fluoropyrrolidine-2-carboxamide] | < 1000 nM
CC(=O)c1cn(CC(=O)N2C[C@H](F)C[C@H]2C(=O)Nc2ccccc2-c2nncn2C)c2ccc(Nc3cncnc3)cc12 [Compound 61, (2S,4R)-1-(2-(3-acetyl-5-(pyrimidin-5-ylamino)-1H-indol-1-yl)acetyl)-4-fluoro-N-(2-(4-methyl-4H-1,2,4-triazol-3-yl)phenyl)pyrrolidine-2-carboxamide] | > 10000 nM
CC(=O)c1cn(C(=O)CN2C[C@H](F)C[C@H]2C(=O)Nc2nnc(-c3ccc(Cl)c(Cl)c3)s2)c2ccc(Nc3cncnc3)cc12 [Compound 39, (2S,4R)-1-(2-(3-acetyl-5-(pyrimidin-5-ylamino)-1H-indol-1-yl)-2-oxoethyl)-N-(5-(3,4-dichlorophenyl)-1,3,4-thiadiazol-2-yl)-4-fluoropyrrolidine-2-carboxamide] | > 10000 nM
CC(=O)c1cn(CC(=O)N2C[C@H](F)C[C@H]2C(=O)NC2CCCN(c3ccccc3Cl)C2=O)c2ccc(Nc3cncnc3)cc12 (stereo partly drawn) [Compound 58, (2S,4R)-1-(2-(3-acetyl-5-(pyrimidin-5-ylamino)-1H-indol-1-yl)acetyl)-N-(1-(2-chlorophenyl)-2-oxopiperidin-3-yl)-4-fluoropyrrolidine-2-carboxamide] | < 1000 nM
CC(=O)c1cn(CC(=O)N2C[C@H](F)C[C@H]2C(=O)Nc2noc(-c3ccccc3Cl)n2)c2ccc(Nc3cncnc3)cc12 [Compound 62, (2S,4R)-1-(2-(3-acetyl-5-(pyrimidin-5-ylamino)-1H-indol-1-yl)acetyl)-N-(5-(2-chlorophenyl)-1,2,4-oxadiazol-3-yl)-4-fluoropyrrolidine-2-carboxamide] | < 1000 nM
CC(=O)c1cn(CC(=O)N2C[C@H](F)C[C@H]2C(=O)NCc2cc(F)cc(Cl)c2)c2ccc(Nc3cncnc3)cc12 [Compound 18, (2S,4R)-1-(2-(3-acetyl-5-(pyrimidin-5-ylamino)-1H-indol-1-yl)acetyl)-N-(3-chloro-5-fluorobenzyl)-4-fluoropyrrolidine-2-carboxamide] | < 1000 nM
